In US5773263A, “Production aflastatin A from streptomyces sp., a pharmaceutical composition and methods of use” (Morinaga & Co., Ltd., priority 1996, dated 1998):
Values after ≈ are worked out from the molar mass of the structure shown. Values joined by “and” are separate entries in the source; they are usually repeats but may differ in a detail not shown here. Equal entries are not always repeated.

How the values were obtained:
[1] = test system: adenocarcinoma 755; experiment: Antitumor activity, subcutaneously transplanted adenocarcinoma 755 in BDFI mice; format: in vivo, mouse; details: for Antitumor activity / Weight of tumor: four successive days, day 14; for Antitumor activity: control 100.0; for Weight of tumor: mean ± SD of six mice, control 1617.8 ± 179.07
Protocol: BDFI mice having a weight of from 21.0 to 24.3 g were divided into four groups each being 6 mice. A physiological saline suspension of adenocarcinoma 755 cells collected from subcultured 11th day mouse and adjusted, was transplanted subcutaneously at a right ventral portion of each mouse at a rate of 5×10^5 cells/0.5 ml/mouse.
The day of transplantation was regarded as the day 0. From the next day, intraperitoneal administration was carried out once a day for four successive days to each group at a rate of aflastatin A administration of 0.3 mg/kg/day, 1 mg/kg/day, or 3 mg/kg/day. The aflastatin A was suspended in a 0.25% carboxymethyl cellulose solution (manufactured by Nakarai Tesk) and administered at a dose of 10 ml/kg. The rest of the four groups was used as a control.
By the day 14, general conditions were observed every day, and the mice were clubbed to death at the day 14. Solid tumors were collected and their wet weights were measured. From the measured tumor weights, inhibitory ratios against the control group were calculated and antitumor activities were determined. The tumor weight is represented by an average of six mice±standard deviation.

[2] = test system: ddy series male mice; experiment: Toxicity, single administration to mice; format: in vivo
Protocol: Aflastatin A was suspended in a 0.25% carboxymethylcellulose solution and the suspension was administered to ddy series male mice. […] By single oral administration, no mice died in an administered amount of 1,000 mg/kg or less.

[3] = test system: Pyricularia oryzae IFO 30732; format: cell-based
[4] = test system: Fusarium graminearum ATCC 34909; format: cell-based
[5] = test system: Aspergillus parasiticus NRRL 2999; format: cell-based
[6] = test system: Staphylococcus aureus IFO 13276; experiment: Antimicrobial spectrum, agar dilution MIC; format: cell-based; details: medium A, 37 °C, 24 hrs
Protocol: (§1) Conditions for the measurements of the antimicrobial sepctra are as follows:
(§2) 80 mg of aflastatin A was dissolved in 4 ml of dimethyl sulfoxide (DMSO). This solution was diluted with DMSO to prepare a dilution series by two times as test solutions. The test solutions were filtrated with a filter and sterilized. 50 μl of each of them was added to 10 ml of a sterilized agar medium at 60° C. to prepare a dilution series of agar media. To each of the agar media, test strains were inoculated for antimicrobial activity. Media used for the tests are as follows:
(§3) A: Nutrient agar (manufactured by Nihon Suisan K.K.)

[7] = test system: Bacillus subtilis IAM 1145; experiment: Antimicrobial spectrum, agar dilution MIC; format: cell-based; details: medium A, 37 °C, 24 hrs
Protocol: as §1, §2, §3

[8] = test system: Escherichia coli IFO 14249; experiment: Antimicrobial spectrum, agar dilution MIC; format: cell-based; details: medium A, 37 °C, 24 hrs
Protocol: as §1, §2, §3

[9] = test system: Psuedomonas aeruginosa IAM 1514; experiment: Antimicrobial spectrum, agar dilution MIC; format: cell-based; details: medium A, 37 °C, 24 hrs
Protocol: as §1, §2, §3

[10] = test system: Trichophyton mentagrophytes IFO 5809; experiment: Antimicrobial spectrum, agar dilution MIC; format: cell-based; details: medium C, 30 °C, 48 hrs
[11] = test system: Saccharomyces cerevisiae IFO 0250; experiment: Antimicrobial spectrum, agar dilution MIC; format: cell-based; details: medium C, 30 °C, 48 hrs
Protocol: as §1, §2
(§4) C: Sabouraud agar (manufactured by Nihon Suisan K.K.)

[12] = test system: Candida albicans IFO 1594; experiment: Antimicrobial spectrum, agar dilution MIC; format: cell-based; details: medium C, 30 °C, 48 hrs
Protocol: as §1, §2, §4

[13] = Solubility; format: physicochemical
[14] = test system: Aspergillus parasiticus NRRL 2999; design: key: -: no growth; +: growth delayed; ++: fine growth; details: in vivo
[15] = test system: Aspergillus parasiticus NRRL 2999; experiment: Antimicrobial spectrum, agar dilution MIC; format: cell-based; details: medium B, 27 °C, 48 hrs
Protocol: as §1, §2
B: Potato dextrose agar (manufactured by Nihon Suisan K.K.)

SMILES: CCCCCCCCCC(O)C[C@]1(O)O[C@H](CC(O)C(O)C(O)C(O)C(O)CC(O)CC(O)CC(O)C(C)C(O)C(C)C(O)CC(O)C(C)C(O)C(C)C(O)C(C)C(O)C(O)CC(C)CC(C)/C=C(C)/C(O)=C2/C(=O)C(C)N(C)C2=O)[C@@H](O)[C@H](O)[C@@H]1O (stereo partly drawn) [aflastatin A]
- Antitumor activity ([1]; 0.3 mg/kg/day i.p.): 42.0%
- Weight of tumor ([1]; 0.3 mg/kg/day i.p.): 680.2 ± 176.63 mg
- Antitumor activity ([1]; 1 mg/kg/day i.p.): 24.3%
- Weight of tumor ([1]; 1 mg/kg/day i.p.): 392.8 ± 87.07 mg
- Dose assessment ([1]; 3 mg/kg/day i.p.): overdose
- Mortality (printed in the column weight of tumor) ([1]; 3 mg/kg/day i.p.): All mice died by the day 3
- LD50 ([2]; single intraperitoneal administration, suspended in 0.25% carboxymethylcellulose): 6.17 mg/kg
- Mortality ([2]; single oral administration, 1,000 mg/kg or less): no mice died
- MIC [3]: > 0.19 mg/L
- MIC [4]: > 100 mg/L
- Colony diameter [5]: 7.8 ± 0.2 cm and 6.5 ± 0.2 cm and 5.5 ± 0.3 cm
- MIC [6]: 0.78 mg/L (≈ 0.62 µM)
- MIC [7]: 0.39 mg/L (≈ 0.31 µM)
- MIC [8]: > 100 mg/L
- MIC [9]: > 100 mg/L
- MIC [10]: 0.39 mg/L (≈ 0.31 µM)
- MIC [11]: < 0.19 mg/L
- MIC [12]: 0.39 mg/L (≈ 0.31 µM)
- Solubility ([13]; aqueous butanol): slightly soluble
- Solubility ([13]; aqueous ethanol): slightly soluble
- Solubility ([13]; dimethyl sulfoxide): Soluble
- Solubility ([13]; glycerol): slightly soluble
- Solubility ([13]; methanol): slightly soluble
- Solubility ([13]; other organic solvents): practically insoluble
- Solubility ([13]; water): practically insoluble
- Growth of strains [14]: ++
- MIC [15]: > 100 mg/L
